This is an account of results in patent US20200010910A1, “Cytotoxic Chemotherapy-Based Predictive Assays for Acute Myeloid Leukemia” (The Regents of The University of California, priority 2017, published 2020).

Data set [1] has as its system HT1197. The experiment in a line: MTT assay IC50, bladder cancer cell line. Type of data set: cell-based. An excerpt: (§1) If these diadducts are the predominant DNA lesion responsible for cell death, then the IC50 of the two drugs should be linearly related. Thus, we measured the IC50 of the six NSCLC cell lines from Example 2 to both cisplatin and carboplatin to determine if the sensitivity of these six NSCLC cell lines to the two drugs are correlated. We observed a statistically significant linear correlation of the cytotoxicity of these two drugs in the 6 cell lines used in this study (R^2=0.72, p=0.033, FIG. 9A) and also to six additional ATCC bladder cancer cell lines. (R^2=0.72, p=0.033), FIG. 9B).
On the technique in general: Tetrazolium assays rely on reduction of a dye to a coloured formazan, in cell work by metabolically active cells.

In data set [2] the test system is J82. The experiment in a line: MTT assay IC50, bladder cancer cell line. Type of data set: cell-based.
Excerpt: as §1

For data set [3], the system named is RT4. In words: MTT assay IC50, bladder cancer cell line. Format: cell-based.
Excerpt: as §1

Data set [4] concerns T24. In words: MTT assay IC50, bladder cancer cell line. Type of data set: cell-based.
Excerpt: as §1

Data set [5] concerns PDX Model BL0293. In words: drug-DNA adducts in PDX tumor by AMS. Type of data set: in vivo, NSG mice. As to conditions: microdose 0.375 mg/kg carboplatin, 24 h. The source says: (§2) Female NSG mice (5-8 weeks of age, body weight: 20 to 25 g) were obtained from Jackson Laboratories (CA, USA). All animals were kept under pathogen-free conditions and were allowed to acclimatize for at least 4 days prior to any experiments. PDX models bearing the indicated patient derived xenografts were created by subcutaneous injection at the flank of 1 mm^3 tumor tissue. To establish multiple PDXs to allow efficacy studies with multiple drugs, PDXs from passage 2-4 were minced into 1 mm^3 sections and injected subcutaneously into multiple mice. At least 3 mice were used for each treatment group. Tumors were allowed to grow to at about 100 mm^3 before being assessed for drug sensitivity or the induction of DNA adducts by the administration of a microdose or a therapeutic dose of labeled drug. To assess tumor response to chemotherapy, cisplatin was administered at 2 mg/kg IV every 7 days for a total of 3 cycles, or gemcitabine was administered at 150 mg/kg IP every 7 days for a total of 4 cycles. G/C combination chemotherapy consisted of the simultaneous administration of both drugs using the schema described above. Tumor growth was assessed by measuring palpable tumors with a caliper and calculating tumor volume. Drug-DNA adduct frequencies were measured in tumor tissue collected 24 hours after intravenous injection of labeled drug and stored at −80° C. until DNA isolation. DNA was isolated using a modified Wizard procedure (Promega), quantitated by spectrophotometry, and then stored frozen at −20° C. until AMS analysis. Ten micrograms of DNA per sample was converted to graphite and measured by AMS for 14C quantification as previously described.
(§3) NSG mice bearing the indicated PDX tumors were injected with a microdose of ^14C-labeled carboplatin (FIG. 22A) or ^14C-labeled gemcitabine (FIG. 22B). The microdose of ^14C-labeled carboplatin was 0.375 mg/kg carboplatin, 50,000 dpm/g. The microdose of ^14C-labeled gemcitabine was 0.092 mg/kg gemcitabine, 1000 dpm/g. The doses of each drug administered to the mice were chosen to target 1 μM in plasma concentration of carboplatin and 0.3 μM in plasma concentration of gemcitabine. These plasma concentrations represent 1% of the approximate peak plasma concentration during human chemotherapy. Animals were sacrificed after 24 h and drug-DNA adduct frequency was determined from collected tumor tissue by AMS measurements of ^14C in tumor DNA. Carboplatin DNA-adduct levels correlate with PDX model sensitivity to cisplatin at 24 h after microdosing (FIG. 22A). Gemcitabine DNA-adduct levels correlate with PDX model sensitivity to gemcitabine at 24 h after microdosing (FIG. 22B). […] There is no significant difference in carboplatin-DNA monoadduct levels between the three resistant PDX models. […]

Data set [6] has as its system PDX Model BL0440. In words: drug-DNA adducts in PDX tumor by AMS. Format: in vivo, NSG mice. The following applies: microdose 0.375 mg/kg carboplatin, 24 h.
Excerpt: as §2, §3

For data set [7] the following is noted: patients; cited from earlier work.

One may read the IC50 as the concentration needed to halve the response being measured. In the case of `N.N.O=C([O-])C1(C(=O)[O-])CCC1.[Pt+2]` [carboplatin], the concentration for half-maximal inhibition (IC50) was determined as 84.5 ± 24.6 µM in data set [1], 168 ± 19.9 µM in data set [2], 56.9 ± 11.2 µM in data set [3] and 42.5 ± 6.99 µM in data set [4]. Also, the entries for the “mean carboplatin-DNA monoadduct level” value in data set [5] and in data set [6] were 1.46±0.520 adducts per 10^8 nucleotides and 2.73±0.661 adducts per 10^8 nucleotides, respectively. Moreover, the “in vivo carboplatin half-life in patients” value in data set [7] was 1.3 to 6 h.
